{"source": "patent US12115151B2", "about": "“Method of treatment of p53 WT tumors” (Dana-Farber Cancer Institute, Inc., priority 2018, dated 2024)", "key": {"[1]": {"tested_on": "MS-1 cells", "experiment": "XTT viability assay, MS-1 cells", "format": "cell-based", "conditions": "MS-1 (p53 mutant); 96 hours", "procedure": "(§1) Cell viability assays were performed using Cell Proliferation Kit II (XTT) (Roche) according to the manufacturer's instructions and BH3 profiling was described in Pallis et al. (36). Synergy testing was performed using Compusyn and Synergyfinder (28, 29)."}, "[2]": {"tested_on": "MKL-1 MCC cells", "experiment": "XTT cell viability assay and synergy testing, MKL-1 cells", "format": "cell-based", "conditions": "96 hours; for sensitivity of MKL-1 cells to MDM2 inhibitor (XTT viability): MKL-1 (p53 wild type); for Response-rep1 / Response-rep2: Lenalidomide 0 nM; for Response: relative viability vs untreated; for relative viability (XTT), untreated = 1: combinations with a fixed amount of Lenalidomide (5 uM), replicate columns", "procedure": "as §1\nThe XTT assay was performed to determine the relative viability (% response) normalized to untreated cells."}, "[3]": {"target": "CK1α (Homo sapiens, UniProt P48729)", "sequence (P48729 whole entry)": "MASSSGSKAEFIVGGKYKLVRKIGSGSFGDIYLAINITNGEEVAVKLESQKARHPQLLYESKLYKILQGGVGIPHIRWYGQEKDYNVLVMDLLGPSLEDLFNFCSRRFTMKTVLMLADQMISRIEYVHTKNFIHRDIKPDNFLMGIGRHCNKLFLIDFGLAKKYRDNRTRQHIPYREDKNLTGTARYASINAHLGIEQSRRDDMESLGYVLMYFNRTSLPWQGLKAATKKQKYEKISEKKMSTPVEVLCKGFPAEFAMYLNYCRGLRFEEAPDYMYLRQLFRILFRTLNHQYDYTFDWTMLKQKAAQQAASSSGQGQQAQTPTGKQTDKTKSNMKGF", "experiment": "Western blot of CK1α protein levels in MKL-1 cells", "format": "cell-based", "conditions": "IMiD 10 μM", "protocol": "Confluent cultures of cells were washed with ice-cold phosphate-buffered saline (PBS) and resuspended in EBC lysis buffer (50 mM Tris, pH 8.0, 150 mM NaCl, 0.5% NP-40, 1:10,000-mercaptoethanol, 0.5 mM EDTA) for 10 min on ice and then centrifuged. Clarified lysates were incubated overnight with antibodies and magnetic protein A/G beads (PureProteome magnetic beads, EMD Millipore). […] Quantitative western blotting was performed using the Odyssey near-infrared system (Li-Cor Biotechnology)."}, "[4]": {"tested_on": "MKL-1 MCC xenografts", "experiment": "Xenograft efficacy study", "conditions": "individual animals, oral daily, HDM201 40 mg/kg and/or lenalidomide 50 mg/kg; for Tumor Volume Change, Abs Ch = T − T0: tumor volumes in mm3", "description": "The study was terminated when the tumor volume reached the maximum permissible size of 2000 mm3."}}, "note": "Where “and” joins values, the source holds several entries; their conditions need not be identical. Equal entries are not always repeated. Entries after “also recorded” stand apart in the source; their conditions may differ.", "data": [{"smiles": "CC(C)[C@@H](CS(=O)(=O)C(C)C)N1C(=O)[C@@](C)(CC(=O)O)C[C@H](c2cccc(Cl)c2)[C@H]1c1ccc(Cl)cc1", "note": "[AMG232]", "values": [{"measurement": "sensitivity of MS-1 cells to MDM2 inhibitor (XTT viability)", "setting": "[1]", "value": "not MS-1 cells were sensitive"}, {"measurement": "sensitivity of MKL-1 cells to MDM2 inhibitor (XTT viability)", "setting": "[2]", "value": "sensitive"}]}, {"smiles": "Nc1cccc2c1C(=O)N(C1CCC(=O)NC1=O)C2=O", "note": "(centres unmarked) [pomalidomide]", "values": [{"measurement": "CK1α protein levels", "setting": "[3]", "value": "did not reduce CK1α protein levels; also recorded: to a lesser degree"}]}, {"smiles": "COc1ncc(-c2nc3c(n2C(C)C)[C@H](c2ccc(Cl)cc2)N(c2cc(Cl)cn(C)c2=O)C3=O)c(OC)n1", "note": "[HDM201, (S)-5-(5-Chloro-1-methyl-2-oxo-1,2-dihydro-pyridin-3-yl)-6-(4-chloro-phenyl)-2-(2,4-dimethoxy-pyrimidin-5-yl)-1-isopropyl-5,6-dihydro-1H-pyrrolo[3,4-d]imidazol-4-one]", "values": [{"measurement": "Response-rep1", "setting": "[2]; HDM201 50 nM", "value": 90.76, "unit": "%"}, {"measurement": "Response-rep2", "setting": "[2]; HDM201 50 nM", "value": 92.94, "unit": "%"}, {"measurement": "Response-rep1", "setting": "[2]; HDM201 100 nM", "value": 75.8, "unit": "%"}, {"measurement": "Response-rep2", "setting": "[2]; HDM201 100 nM", "value": 77.72, "unit": "%"}, {"measurement": "Response-rep1", "setting": "[2]; HDM201 150 nM", "value": 53.3961, "unit": "%"}, {"measurement": "Response-rep2", "setting": "[2]; HDM201 150 nM", "value": 61.84, "unit": "%"}, {"measurement": "Response-rep1", "setting": "[2]; HDM201 180 nM", "value": 33.32, "unit": "%"}, {"measurement": "Response-rep2", "setting": "[2]; HDM201 180 nM", "value": 40.87, "unit": "%"}, {"measurement": "Response", "setting": "[2]; HDM201 50 nM alone", "value": 93.9107, "unit": "%"}, {"measurement": "Response", "setting": "[2]; HDM201 100 nM alone", "value": 90.5417, "unit": "%"}, {"measurement": "Response", "setting": "[2]; HDM201 150 nM alone", "value": 94.8184, "unit": "%"}, {"measurement": "Response", "setting": "[2]; HDM201 180 nM alone", "value": 87.8557, "unit": "%"}, {"measurement": "Tumor Volume Change, % Ch = (T − T0)/T0", "setting": "[4]; day 0", "value": 0.00, "unit": "%"}, {"measurement": "Tumor Volume Change, Abs Ch = T − T0", "setting": "[4]; day 0", "value": 0.00}, {"measurement": "Tumor Volume Change, % Ch = (T − T0)/T0", "setting": "[4]; day 4", "value": "168.68% and 25.53% and 16.64% and 93.53% and 6.55% and 29.08% and 14.67% and 11.44%"}, {"measurement": "Tumor Volume Change, Abs Ch = T − T0", "setting": "[4]; day 4", "value": "302.89 and 66.12 and 32.34 and 133.99 and 10.51 and 44.16 and 21.14 and 14.26"}, {"measurement": "Tumor Volume Change, % Ch = (T − T0)/T0", "setting": "[4]; day 7", "value": "392.40% and 107.65% and 56.29% and 123.49% and 37.00% and 27.47% and 30.43% and 28.15%"}, {"measurement": "Tumor Volume Change, Abs Ch = T − T0", "setting": "[4]; day 7", "value": "704.61 and 278.82 and 109.40 and 176.91 and 59.41 and 41.71 and 43.86 and 35.09"}, {"measurement": "Tumor Volume Change, % Ch = (T − T0)/T0", "setting": "[4]; day 11", "value": "465.37% and 122.53% and 125.88% and 248.58% and 101.24% and 14.09% and 37.76% and 61.17%"}, {"measurement": "Tumor Volume Change, Abs Ch = T − T0", "setting": "[4]; day 11", "value": "835.64 and 317.36 and 244.65 and 356.12 and 162.53 and 21.39 and 54.43 and 76.25"}, {"measurement": "Tumor Volume Change, % Ch = (T − T0)/T0", "setting": "[4]; day 14", "value": "597.67% and 128.4% and 191.55% and 295.64% and 94.41% and 41.69% and 77.45% and 56.59%"}, {"measurement": "Tumor Volume Change, Abs Ch = T − T0", "setting": "[4]; day 14", "value": "1073.19 and 332.66 and 372.29 and 423.53 and 151.58 and 63.30 and 111.64 and 70.55"}, {"measurement": "Tumor Volume Change, % Ch = (T − T0)/T0", "setting": "[4]; day 18", "value": "741.47% and 4165.70% and 234.58% and 350.27% and 114.06% and 20.72% and 81.45% and 83.83%"}, {"measurement": "Tumor Volume Change, Abs Ch = T − T0", "setting": "[4]; day 18", "value": "1331.39 and 429.17 and 455.90 and 501.79 and 183.12 and 31.46 and 117.41 and 104.49"}]}, {"smiles": "O=C1CCC(N2C(=O)c3ccccc3C2=O)C(=O)N1", "note": "(centres unmarked) [thalidomide]", "values": [{"measurement": "CK1α protein levels", "setting": "[3]", "value": "did not reduce CK1α protein levels; also recorded: not thalidomide"}]}, {"smiles": "COc1cc(C(=O)O)ccc1NC(=O)[C@@H]1N[C@@H](CC(C)(C)C)[C@](C#N)(c2ccc(Cl)cc2F)[C@H]1c1cccc(Cl)c1F", "note": "[RG7388]", "values": [{"measurement": "sensitivity of MS-1 cells to MDM2 inhibitor (XTT viability)", "setting": "[1]", "value": "not MS-1 cells were sensitive"}, {"measurement": "sensitivity of MKL-1 cells to MDM2 inhibitor (XTT viability)", "setting": "[2]", "value": "sensitive"}, {"measurement": "relative viability (XTT), untreated = 1", "setting": "[2]; Nutlin-3 or RG7388 level 25 (unit not given)", "value": "0.7819 and 0.7111 and 0.8222"}, {"measurement": "relative viability (XTT), untreated = 1", "setting": "[2]; Nutlin-3 or RG7388 level 50 (unit not given)", "value": "0.6836 and 0.5814 and 0.6885"}, {"measurement": "relative viability (XTT), untreated = 1", "setting": "[2]; Nutlin-3 or RG7388 level 75 (unit not given)", "value": "0.553 and 0.4338 and 0.5431"}, {"measurement": "relative viability (XTT), untreated = 1", "setting": "[2]; Nutlin-3 or RG7388 level 90 (unit not given)", "value": "0.4663 and 0.3695 and 0.5108"}]}, {"smiles": "CNc1ncc(-n2nc(N)c3cc(F)c(-c4ccc(O)c5ccccc45)cc32)c(Cl)c1C", "note": "[SC-24-UR99, 4-(3-amino-1-(4-chloro-5-methyl-6-(methylamino)pyridin-3-yl)-5-fluoro-1H-indazol-6-yl)naphthalen-1-ol]", "values": [{"measurement": "Response", "setting": "[2]; SC-24-UR99 50 nM alone", "value": "103.6933% and 100.5561%"}, {"measurement": "Response", "setting": "[2]; SC-24-UR99 100 nM alone", "value": "99.5168% and 105.263%"}, {"measurement": "Response", "setting": "[2]; SC-24-UR99 150 nM alone", "value": "99.3633% and 93.4308%"}, {"measurement": "Response", "setting": "[2]; SC-24-UR99 180 nM alone", "value": "92.5016% and 89.8385%"}]}]}
